Results as given in US9113629B2, “4-amino-6-(4-substituted-phenyl)-picolinates and 6-amino-2-(4-substituted-phenyl)-pyrimidine-4-carboxylates and their use as herbicides” (DOW AGROSCIENCES LLC, priority 2013, dated 2015).
Read-outs that look alike come from different tables or passages of the source.

How the values were obtained:
[1] = tested on: Key Broadleaf Weed and Crop Species; experiment: Post-emergent Test II herbicidal activity (Table 5); assay type: in vivo; details: post-emergent; for pest or weed control at 70 g/ha / pest or weed control at 140 g/ha: post-emergence, 336 h, 14 days after application
In short: (§1)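 Foliar application at 187 L/ha to greenhouse-grown seedlings (first or second true leaf); subirrigation thereafter. Visual 0–100% injury at 14 d relative to untreated plants.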

[2] = tested on: Key Grass and Sedge Weeds as well as Grass Crops; experiment: Post-emergent Test II herbicidal activity (Table 6); assay type: in vivo; details: for pest or weed control at 70 g/ha / pest or weed control at 140 g/ha: post-emergence, 336 h; for Visual Growth Reduction (%) 14 Days After Application, SORVU: SORVU: sorghum (Sorghum vulgare)
In short: as §1

For `C=Cc1c(C(=O)OC)nc(-c2ccc(Br)cc2)c(F)c1N` [Compound 57, methyl 4-amino-6-(4-bromophenyl)-5-fluoro-3-vinylpicolinate], which pest or weed control at 70 g/ha ([1]; ABUTH: velvetleaf (Abutilon theophrasti), 70 g ai/ha, read-out: Visual Growth Reduction (%) 14 Days After Application ABUTH) is on record?
Its pest or weed control at 70 g/ha is 85 to 94%.

And the pest or weed control at 140 g/ha ([1]; ABUTH: velvetleaf (Abutilon theophrasti), 140 g ai/ha, read-out: Visual Growth Reduction (%) 14 Days After Application ABUTH)?
Its pest or weed control at 140 g/ha is 85 to 94%.

What about the pest or weed control at 70 g/ha ([1]; AMARE: redroot pigweed (Amaranthus retroflexus), 70 g ai/ha, read-out: Visual Growth Reduction (%) 14 Days After Application AMARE) of the same compound?
Its pest or weed control at 70 g/ha is 85 to 94%.

What about the pest or weed control at 140 g/ha ([1]; AMARE: redroot pigweed (Amaranthus retroflexus), 140 g ai/ha, read-out: Visual Growth Reduction (%) 14 Days After Application AMARE) of the same compound?
The pest or weed control at 140 g/ha was 95 to 100%.

And the pest or weed control at 70 g/ha ([1]; BRSNN: oilseed-rape, canola (Brassica napus), 70 g ai/ha, read-out: Visual Growth Reduction (%) 14 Days After Application BRSNN)?
The pest or weed control at 70 g/ha was 60 to 74%.

And the pest or weed control at 140 g/ha ([1]; BRSNN: oilseed-rape, canola (Brassica napus), 140 g ai/ha, read-out: Visual Growth Reduction (%) 14 Days After Application BRSNN)?
Its pest or weed control at 140 g/ha is 75 to 84%.

What about the pest or weed control at 70 g/ha ([1]; CHEAL: lambsquarters (Chenopodium album), 70 g ai/ha, read-out: Visual Growth Reduction (%) 14 Days After Application CHEAL) of the same compound?
The pest or weed control at 70 g/ha was 85 to 94%.

What about the pest or weed control at 140 g/ha ([1]; CHEAL: lambsquarters (Chenopodium album), 140 g ai/ha, read-out: Visual Growth Reduction (%) 14 Days After Application CHEAL) of the same compound?
The pest or weed control at 140 g/ha was 85 to 94%.

What about the pest or weed control at 70 g/ha ([1]; EPHHL: wild poinsettia (Euphorbia heterophylla), 70 g ai/ha, read-out: Visual Growth Reduction (%) 14 Days After Application EPHHL) of the same compound?
The pest or weed control at 70 g/ha was 85 to 94%.

What about the pest or weed control at 140 g/ha ([1]; EPHHL: wild poinsettia (Euphorbia heterophylla), 140 g ai/ha, read-out: Visual Growth Reduction (%) 14 Days After Application EPHHL) of the same compound?
Its pest or weed control at 140 g/ha is 85 to 94%.

What about the pest or weed control at 70 g/ha ([1]; HELAN: sunflower (Helianthus annuus), 70 g ai/ha, read-out: Visual Growth Reduction (%) 14 Days After Application HELAN) of the same compound?
Its pest or weed control at 70 g/ha is 85 to 94%.

And the pest or weed control at 140 g/ha ([1]; HELAN: sunflower (Helianthus annuus), 140 g ai/ha, read-out: Visual Growth Reduction (%) 14 Days After Application HELAN)?
The pest or weed control at 140 g/ha was 85 to 94%.

What about the pest or weed control at 70 g/ha ([1]; VIOTR: wild pansy (Viola tricolor), 70 g ai/ha, read-out: Visual Growth Reduction (%) 14 Days After Application VIOTR) of the same compound?
The pest or weed control at 70 g/ha was 0 to 29%.

What about the pest or weed control at 140 g/ha ([1]; VIOTR: wild pansy (Viola tricolor), 140 g ai/ha, read-out: Visual Growth Reduction (%) 14 Days After Application VIOTR) of the same compound?
The pest or weed control at 140 g/ha was 0 to 29%.

What about the pest or weed control at 70 g/ha ([2]; Triticum aestivum, TRZSS (wheat), application rate 70 g ai/ha, read-out: Visual Growth Reduction (%) 14 Days After Application, TRZSS) of the same compound?
The pest or weed control at 70 g/ha was 0 to 29%.

And the pest or weed control at 140 g/ha ([2]; Triticum aestivum, TRZSS (wheat), application rate 140 g ai/ha, read-out: Visual Growth Reduction (%) 14 Days After Application, TRZSS)?
The pest or weed control at 140 g/ha was 0 to 29%.

And the pest or weed control at 70 g/ha ([2]; CYPES: yellow nutsedge (Cyperus esculentus), application rate 70 g ai/ha, read-out: Visual Growth Reduction (%) 14 Days After Application, CYPES)?
Its pest or weed control at 70 g/ha is 95 to 100%.

What about the pest or weed control at 140 g/ha ([2]; CYPES: yellow nutsedge (Cyperus esculentus), application rate 140 g ai/ha, read-out: Visual Growth Reduction (%) 14 Days After Application, CYPES) of the same compound?
The pest or weed control at 140 g/ha was 95 to 100%.

What about the pest or weed control at 70 g/ha ([2]; DIGSA: crabgrass (Digitaria sanguinalis), application rate 70 g ai/ha, read-out: Visual Growth Reduction (%) 14 Days After Application, DIGSA) of the same compound?
The pest or weed control at 70 g/ha was 0 to 29%.

And the pest or weed control at 140 g/ha ([2]; DIGSA: crabgrass (Digitaria sanguinalis), application rate 140 g ai/ha, read-out: Visual Growth Reduction (%) 14 Days After Application, DIGSA)?
The pest or weed control at 140 g/ha was 0 to 29%.

What about the pest or weed control at 70 g/ha ([2]; ECHCG: barnyardgrass (Echinochloa crus-galli), application rate 70 g ai/ha, read-out: Visual Growth Reduction (%) 14 Days After Application, ECHCG) of the same compound?
The pest or weed control at 70 g/ha was 0 to 29%.

And the pest or weed control at 140 g/ha ([2]; ECHCG: barnyardgrass (Echinochloa crus-galli), application rate 140 g ai/ha, read-out: Visual Growth Reduction (%) 14 Days After Application, ECHCG)?
Its pest or weed control at 140 g/ha is 0 to 29%.

And the pest or weed control at 70 g/ha ([2]; ORYSA: rice (Oryza sativa), application rate 70 g ai/ha, read-out: Visual Growth Reduction (%) 14 Days After Application, ORYSA)?
Its pest or weed control at 70 g/ha is 0 to 29%.

And the pest or weed control at 140 g/ha ([2]; ORYSA: rice (Oryza sativa), application rate 140 g ai/ha, read-out: Visual Growth Reduction (%) 14 Days After Application, ORYSA)?
The pest or weed control at 140 g/ha was 0 to 29%.

What about the pest or weed control at 70 g/ha ([2]; SETFA: giant foxtail (Setaria faberi), application rate 70 g ai/ha, read-out: Visual Growth Reduction (%) 14 Days After Application, SETFA) of the same compound?
Its pest or weed control at 70 g/ha is 0 to 29%.

What about the pest or weed control at 140 g/ha ([2]; SETFA: giant foxtail (Setaria faberi), application rate 140 g ai/ha, read-out: Visual Growth Reduction (%) 14 Days After Application, SETFA) of the same compound?
Its pest or weed control at 140 g/ha is 0 to 29%.

What about the pest or weed control at 70 g/ha ([2]; SORVU: grain sorghum (Sorghum vulgare), application rate 70 g ai/ha, read-out: Visual Growth Reduction (%) 14 Days After Application, SORVU) of the same compound?
The pest or weed control at 70 g/ha was 75 to 84%.

What about the pest or weed control at 140 g/ha ([2]; SORVU: grain sorghum (Sorghum vulgare), application rate 140 g ai/ha, read-out: Visual Growth Reduction (%) 14 Days After Application, SORVU) of the same compound?
Its pest or weed control at 140 g/ha is 95 to 100%.

What about the pest or weed control at 70 g/ha ([2]; ZEAMX: maize, corn (Zea mays), application rate 70 g ai/ha, read-out: Visual Growth Reduction (%) 14 Days After Application, ZEAMX) of the same compound?
The pest or weed control at 70 g/ha was 0 to 29%.

And the pest or weed control at 140 g/ha ([2]; ZEAMX: maize, corn (Zea mays), application rate 140 g ai/ha, read-out: Visual Growth Reduction (%) 14 Days After Application, ZEAMX)?
The pest or weed control at 140 g/ha was 0 to 29%.

Which results are given for `COC(=O)c1nc(-c2ccc(C(F)(F)F)c(F)c2)c(Cl)c(N)c1Cl` [Compound 58]?
Visual Growth Reduction (%) 14 Days After Application, ABUTH ([1]; ABUTH: velvetleaf (Abutilon theophrasti), 70 g ai/ha): B (85-94); Visual Growth Reduction (%) 14 Days After Application, ABUTH ([1]; ABUTH: velvetleaf (Abutilon theophrasti), 140 g ai/ha): A (95-100); Visual Growth Reduction (%) 14 Days After Application, AMARE ([1]; AMARE: redroot pigweed (Amaranthus retroflexus), 70 g ai/ha): B (85-94); Visual Growth Reduction (%) 14 Days After Application, AMARE ([1]; AMARE: redroot pigweed (Amaranthus retroflexus), 140 g ai/ha): A (95-100); Visual Growth Reduction (%) 14 Days After Application, BRSNN ([1]; BRSNN: oilseed-rape, canola (Brassica napus), 70 g ai/ha): D (60-74); Visual Growth Reduction (%) 14 Days After Application, BRSNN ([1]; BRSNN: oilseed-rape, canola (Brassica napus), 140 g ai/ha): C (75-84); Visual Growth Reduction (%) 14 Days After Application, CHEAL ([1]; CHEAL: lambsquarters (Chenopodium album), 70 g ai/ha): A (95-100); Visual Growth Reduction (%) 14 Days After Application, CHEAL ([1]; CHEAL: lambsquarters (Chenopodium album), 140 g ai/ha): A (95-100); Visual Growth Reduction (%) 14 Days After Application, EPHHL ([1]; EPHHL: wild poinsettia (Euphorbia heterophylla), 70 g ai/ha): G (0-29); Visual Growth Reduction (%) 14 Days After Application, EPHHL ([1]; EPHHL: wild poinsettia (Euphorbia heterophylla), 140 g ai/ha): G (0-29); Visual Growth Reduction (%) 14 Days After Application, HELAN ([1]; HELAN: sunflower (Helianthus annuus), 70 g ai/ha): A (95-100); Visual Growth Reduction (%) 14 Days After Application, HELAN ([1]; HELAN: sunflower (Helianthus annuus), 140 g ai/ha): A (95-100); Visual Growth Reduction (%) 14 Days After Application, VIOTR ([1]; VIOTR: wild pansy (Viola tricolor), 70 g ai/ha): G (0-29); Visual Growth Reduction (%) 14 Days After Application, VIOTR ([1]; VIOTR: wild pansy (Viola tricolor), 140 g ai/ha): G (0-29); Visual Growth Reduction (%) 14 Days After Application, CYPES ([2]; CYPES: yellow nutsedge (Cyperus esculentus), application rate 70 g ai/ha): A (95-100); Visual Growth Reduction (%) 14 Days After Application, CYPES ([2]; CYPES: yellow nutsedge (Cyperus esculentus), application rate 140 g ai/ha): A (95-100); Visual Growth Reduction (%) 14 Days After Application, DIGSA ([2]; DIGSA: crabgrass (Digitaria sanguinalis), application rate 70 g ai/ha): D (60-74); Visual Growth Reduction (%) 14 Days After Application, DIGSA ([2]; DIGSA: crabgrass (Digitaria sanguinalis), application rate 140 g ai/ha): C (75-84); Visual Growth Reduction (%) 14 Days After Application, ECHCG ([2]; ECHCG: barnyardgrass (Echinochloa crus-galli), application rate 70 g ai/ha): G (0-29); Visual Growth Reduction (%) 14 Days After Application, ECHCG ([2]; ECHCG: barnyardgrass (Echinochloa crus-galli), application rate 140 g ai/ha): C (75-84); Visual Growth Reduction (%) 14 Days After Application, ORYSA ([2]; ORYSA: rice (Oryza sativa), application rate 70 g ai/ha): G (0-29); Visual Growth Reduction (%) 14 Days After Application, ORYSA ([2]; ORYSA: rice (Oryza sativa), application rate 140 g ai/ha): G (0-29); Visual Growth Reduction (%) 14 Days After Application, SORVU ([2]; application rate 70 g ai/ha): E (45-59); Visual Growth Reduction (%) 14 Days After Application, SORVU ([2]; application rate 140 g ai/ha): E (45-59); Visual Growth Reduction (%) 14 Days After Application, TRZSS ([2]; TRZSS (wheat), application rate 70 g ai/ha): E (45-59); Visual Growth Reduction (%) 14 Days After Application, TRZSS ([2]; TRZSS (wheat), application rate 140 g ai/ha): D (60-74); Visual Growth Reduction (%) 14 Days After Application, ZEAMX ([2]; ZEAMX: maize, corn (Zea mays), application rate 70 g ai/ha): D (60-74); Visual Growth Reduction (%) 14 Days After Application, ZEAMX ([2]; ZEAMX: maize, corn (Zea mays), application rate 140 g ai/ha): D (60-74)
